Columns and labels:
[1] = Antagonist activity at PAR1 in human platelet-rich plasma assessed as reduction in thrombin-stimulated platelet aggregation preincubated for 3 mins followed by thrombin stimulation measured after 5 mins by aggregometric analysis
[2] = Antagonist activity at PAR1 in human platelet-rich plasma assessed as reduction in TRAP-stimulated platelet aggregation preincubated for 20 mins followed by TRAP stimulation measured after 5 mins by aggregometric analysis
[3] = Antagonist activity at PAR1 in human platelet-rich plasma assessed as reduction in thrombin-stimulated platelet aggregation preincubated for 3 mins followed by thrombin stimulation measured after 5 mins by aggregometric analysis; remark: listed apart in the source

Row | IC50 [1] [nM] | IC50 [2] [nM] | IC50 [3] [nM] | Compound
1 | 650 | 1600 |  | C[C@H]1CC[C@@H]2C(C)(C)[C@H](O)CC[C@@]2(C)[C@@H]1/C=C/c1ccc(-c2cccc(F)c2)cn1
2 |  | 31 | 81 | CCOC(=O)N[C@@H]1CC[C@@H]2[C@@H](C1)C[C@H]1C(=O)O[C@H](C)[C@H]1[C@H]2C=Cc1ccc(-c2cccc(F)c2)cn1 [Ethyl [(3aR,4aR,8aR,9aS)-9(S)-[(E)-2-[5-(3-fluorophenyl)-2-pyridinyl]ethenyl]dodecahydro-1(R)-methyl-3-oxonaphtho[2,3-c]furan-6(R)-yl]carbamate]

From BindingDB's records for doi:10.1021/acs.jmedchem.7b00951 (Shandong University, 2017)
